IC50 data for 24 molecules are collected here from US10676471B2, “Cycloalkyl-linked diheterocycle derivatives” (Pfizer Inc., priority 2014, dated 2020).

Bounds are passed on as bounds.

The subject of this assay is BT20 Cell. Put plainly: Cancer Cell Lysate Total L-Glutamate Assay. The conditions noted are these: Homo sapiens, BT-20, 2 h, total L-glutamate in cell lysate, BT20 cells, 2 hour incubation with test compound. In kind it is cell-based. As for the experimental part: Cancer Cell Lysate Total L-Glutamate Assay
Cancer cell lines (BT20, HCT116, SKOV3, HCC70, SUM149, MDA-MB-231, etc.) were plated in 96 well plates and were used for the total L-glutamate assay when the monolayer was ca. 80% confluent. The media was changed and fresh media containing L-glutamine was added to the 96 well plates, just before incubation of the cells with test compound. The test compound was diluted in 100% DMSO using a two-fold or three-fold serial dilution. Small volumes of the dilutions of test compound were added to the 96 well plates so the final DMSO concentration was 0.5% v/v in the cell culture medium. The cells were incubated at 37° C., 5% CO2, and 95% air for 2 hours. Following the 2 hour incubation, the cells were washed with water 2 times. After the last water wash, 100 μL of 50 mM Tris-HCl pH 7.4 and 0.01% Tween-20 was added to each well and the plate was frozen at −80° C. The 96 well plate was frozen and thawed a total of 3 times and then sonicated for 5 min at 4° C. in a bath sonicator. Following sonication, the 96 well plate was centrifuged for 5 min at 1000 rpm and 10 μL of the supernatant was transferred to a 384 well assay plate.
Total L-glutamate (L-glutamic acid) in the cell lysis supernatant was detected using glutamate oxidase, horseradish peroxidase and Amplex Red reagent (10-acetyl-3,7-dihydroxy phenoxazine, Invitrogen # A22177). In this assay, L-glutamate was oxidized by glutamate oxidase to produce alpha-ketoglutarate (2-oxopentane dioic acid), NH3 and H202. The H2O2 (hydrogen peroxide) was used by horseradish peroxidase (HRP) to oxidize the Amplex Red Reagent to resorufin which is a fluorescent molecule. When resorufin is excited with light with a wavelength 530-560 nm, it emits light at approximately 585 nm. For detection of total L-glutamate in 10 μL of lysate, 15 μL of an enzyme mixture was added to each well of the 384 well assay plate. The enzyme mixture consisted of 50 mM Tris-HCl pH 7.4, 0.01% Tween-20, 50 μM Amplex Red reagent (final concentration), 0.04 U/mL L-glutamate oxidase (final concentration), and 0.125 U/mL HRP (final concentration). The 384 well assay plate was incubated at room temperature for 5 min and then the fluorescence intensity of each well was measured at 585 nm using a 530-560 nm excitation wavelength in a plate based fluorimeter such as an LJL Analyst or a Tecan Infinite plate reader. Standard curves were constructed for this assay using dilutions of a L-glutamate standard. IC50 were calculated by plotting the relative fluorescent units vs log of the inhibitor concentration and fitting the data to the four parameter logistic equation.
Reference: Chapman J. and Zhou M. (1999) Microplate-based fluorometric methods for the enzymatic determination of I-glutamate: application in measuring I-glutamate in food samples. Analytica Chim Acta 402:47-52.

By IC50 is commonly meant the concentration at which inhibition is half-maximal. High values mean lower potency, low ones higher potency.

For `CCC(=O)Nc1ccc(C[C@H]2C[C@@H](c3nnc(NC(=O)Cc4ccccn4)s3)C2)nn1` (single isomer, unassigned) [Example 73], inhibition was half-maximal at 0.0007 µM (IC50).
With `O=C(Cc1ccccn1)Nc1nnc(CC2CCC(c3nnc(Nc4cnccn4)s3)C2)s1` (racemic) [Example 87, (rac)-N-[5-({(cis)-3-[5-(pyrazin-2-ylamino)-1,3,4-thiadiazol-2-yl]cyclopentyl}methyl)-1,3,4-thiadiazol-2-yl]-2-(pyridin-2-yl)acetamide], the IC50 came to 0.0075 µM. This IC50 lies about 11-fold higher than the previous one.
For `CC(=O)Nc1nnc(C[C@H]2C[C@@H](c3nnc(NC(=O)Cc4ccc(C)cn4)s3)C2)s1` (single isomer, unassigned) [Example 107, N-[5-(cis-3-{[5-(acetylamino)-1,3,4-thiadiazol-2-yl]methyl}cyclobutyl)-1,3,4-thiadiazol-2-yl]-2-(5-methylpyridin-2-yl)acetamide], the 50% inhibitory concentration (IC50) worked out at 0.0101 µM.
In the case of `CC(=O)Nc1nnc(C2CCC(Cc3nnc(NC(=O)Cc4ccccn4)s3)C2)s1` (racemic) [Example 18, (rac)-N-[5-({(cis)-3-[5-(acetylamino)-1,3,4-thiadiazol-2-yl]cyclopentyl}methyl)-1,3,4-thiadiazol-2-yl]-2-(pyridin-2-yl)acetamide], the 50% inhibitory concentration (IC50) came out at 0.0797 µM.
Under `O=C(Cc1ccccc1)Nc1ccc(C[C@@H]2CC[C@H](c3nnc(NC(=O)Cc4ccccn4)s3)C2)nn1` (single isomer, unassigned) [Example 82, 2-phenyl-N-(6-{[(cis)-3-{5-[(pyridin-2-ylacetyl)amino]-1,3,4-thiadiazol-2-yl}cyclopentyl]methyl}pyridazin-3-yl)acetamide] stands 0.0001 µM.
For the molecule `CC(=O)Nc1nnc(C2CCC(Cc3nnc(NC(=O)Cc4ncccn4)s3)C2)s1` (racemic) [Example 46, (rac)-N-[5-({(cis)-3-[5-(acetylamino)-1,3,4-thiadiazol-2-yl]cyclopentyl}methyl)-1,3,4-thiadiazol-2-yl]-2-(pyrimidin-2-yl)acetamide], half-maximal inhibition (IC50) was put at 0.349 µM.
Regarding `CC(=O)Nc1nnc(CC2CCC(c3nnc(NC(=O)c4ccccc4)s3)C2)s1` (racemic) [Example 48, (rac)-N-{5-[(cis)-3-{[5-(acetylamino)-1,3,4-thiadiazol-2-yl]methyl}cyclopentyl]-1,3,4-thiadiazol-2-yl}benzamide], the half-inhibitory concentration (IC50) turned out to be 0.989 µM.
As for `O=C(Cc1ccccc1)Nc1nnc(C[C@@H]2CC[C@H](c3nnc(NC(=O)Cc4ccccc4)s3)C2)s1` (single isomer, unassigned) [Example 8], the figure is 0.0014 µM.
As for `CCNc1nnc([C@H]2C[C@@H](Cc3ccc(NC(=O)Cc4ccccc4)nn3)C2)s1` (single isomer, unassigned) [Example 100, N-[6-({cis-3-[5-(ethylamino)-1,3,4-thiadiazol-2-yl]cyclobutyl}methyl)pyridazin-3-yl]-2-phenylacetamide], the figure is 0.0024 µM; as for `CC(=O)Nc1nnc([C@H]2CC3(C[C@H](c4nnc(NC(C)=O)s4)C3)C2)s1` (single isomer, unassigned) [Example 93, N,N′-(spiro[3.3]heptane-2,6-diyldi-1,3,4-thiadiazole-5,2-diyl)diacetamide], 0.0104 µM.
In turn, `O=C(Cc1ccccn1)Nc1nnc(CC2CCC(c3nnc(Nc4ncccn4)s3)C2)s1` (racemic) [Example 83, (rac)-2-(pyridin-2-yl)-N-[5-({(cis)-3-[5-(pyrimidin-2-ylamino)-1,3,4-thiadiazol-2-yl]cyclopentyl}methyl)-1,3,4-thiadiazol-2-yl]acetamide] registered an IC50 of 0.0024 µM.
As for `C[C@H](C(=O)Nc1nnc(C[C@@H]2CC[C@H](c3nnc(NC(=O)[C@H](C)c4cccnc4)s3)C2)s1)c1cccnc1` (single isomer, unassigned) [Example 38, 2-(pyridin-3-yl)-N-(5-{[(cis)-3-(5-{[2-(pyridin-3-yl)propanoyl]amino}-1,3,4-thiadiazol-2-yl)cyclopentyl]methyl}-1,3,4-thiadiazol-2-yl)propanamide], the figure is 0.136 µM; as for `CC(=O)Nc1nnc(C2CC[C@H](Cc3nnc(NC(=O)c4ccccc4)s3)C2)s1` (single isomer, unassigned) [Example 12, N-[5-({(cis)-3-[5-(acetylamino)-1,3,4-thiadiazol-2-yl]cyclopentyl}methyl)-1,3,4-thiadiazol-2-yl]benzamide], greater than 50 µM; as for `C[C@H](C(=O)Nc1nnc([C@@H]2CC[C@H](Cc3nnc(NC(=O)[C@H](C)c4cccnc4)s3)C2)s1)c1cccnc1` (single isomer, unassigned) [Example 31, 2-(pyridin-3-yl)-N-(5-{[(cis)-3-(5-{[2-(pyridin-3-yl)propanoyl]amino}-1,3,4-thiadiazol-2-yl)cyclopentyl]methyl}-1,3,4-thiadiazol-2-yl)propanamide], 0.639 µM.
`C[C@H](c1nnc(NC(=O)Cc2ccccn2)s1)[C@H]1C[C@@H](c2nnc(NC(=O)Cc3ccccn3)s2)C1` (single isomer, unassigned) [Example 102, 2-(pyridin-2-yl)-N-{5-[(1-(cis)-3-{5-[(pyridin-2-ylacetyl)amino]-1,3,4-thiadiazol-2-yl}cyclobutyl)ethyl]-1,3,4-thiadiazol-2-yl}acetamide]: the IC50 came to 0.002 µM.
As for `CC(=O)Nc1nnc(C[C@H]2CC[C@@H](c3nnc(NC(=O)Cc4cncnc4)s3)C2)s1` (single isomer, unassigned) [Example 59, N-{5-[(cis)-3-{[5-(acetylamino)-1,3,4-thiadiazol-2-yl]methyl}cyclopentyl]-1,3,4-thiadiazol-2-yl}-2-(pyrimidin-5-yl)acetamide], the figure is 7.76 µM; as for `CC(=O)Nc1nnc(C[C@@H]2CC[C@H](c3nnc(NC(=O)Cc4ccccc4)s3)C2)s1` (single isomer, unassigned) [Example 44, N-{5-[(cis)-3-{[5-(acetylamino)-1,3,4-thiadiazol-2-yl]methyl}cyclopentyl]-1,3,4-thiadiazol-2-yl}-2-phenylacetamide], 0.0055 µM.
Under `CC(=O)Nc1nnc(C[C@@H]2CC[C@H](c3nnc(NC(=O)Cc4cncnc4)s3)C2)s1` (single isomer, unassigned) [Example 58, N-{5-[(cis)-3-{[5-(acetylamino)-1,3,4-thiadiazol-2-yl]methyl}cyclopentyl]-1,3,4-thiadiazol-2-yl}-2-(pyrimidin-5-yl)acetamide] stands 0.276 µM.
Consider `CC(=O)Nc1nnc([C@@H]2CC[C@H](Cc3nnc(NC(=O)c4ccccc4F)s3)C2)s1` (racemic) [Example 148, (rac)-N-[5-({(cis)-3-[5-(acetylamino)-1,3,4-thiadiazol-2-yl]cyclopentyl}methyl)-1,3,4-thiadiazol-2-yl]-2-fluorobenzamide], for which it took 0.0126 µM to reach half-maximal inhibition (IC50).
In the case of `CCC(=O)Nc1ccc(C[C@@H]2CC[C@H](c3nnc(NC(=O)CCOC)s3)C2)nn1` (single isomer, unassigned) [Example 90, 3-methoxy-N-{5-[(cis)-3-{[6-(propanoylamino)pyridazin-3-yl]methyl}cyclopentyl]-1,3,4-thiadiazol-2-yl}propanamide], the half-maximal inhibitory concentration (IC50) stood at 0.0013 µM.
Under `CC(=O)Nc1nnc([C@H]2CC[C@@H](Cc3nnc(NC(=O)Cc4cncnc4)s3)C2)s1` (single isomer, unassigned) [Example 51, N-[5-({(cis)-3-[5-(acetylamino)-1,3,4-thiadiazol-2-yl]cyclopentyl}methyl)-1,3,4-thiadiazol-2-yl]-2-(pyrimidin-5-yl)acetamide] stands 0.0645 µM; under `CC(=O)Nc1nnc(C[C@@H]2CC[C@H](c3nnc(NC(C)=O)s3)C2)s1` (single isomer, unassigned) [Example 5], 0.104 µM.
The molecule `CC(C)C(=O)Nc1ccc(C[C@@H]2CC[C@H](c3nnc(NC(=O)Cc4ccccn4)s3)C2)nn1` (single isomer, unassigned) [Example 77, 2-methyl-N-(6-{[(cis)-3-{5-[(pyridin-2-ylacetyl)amino]-1,3,4-thiadiazol-2-yl}cyclopentyl]methyl}pyridazin-3-yl)propanamide] came in with an IC50 of 0.0004 µM.
`Nc1nnc(CC2CC[C@@H](c3nnc(NC(=O)Cc4ccccc4)s3)C2)s1` (single isomer, unassigned) [Example 65, N-(5-{(cis)-3-[(5-amino-1,3,4-thiadiazol-2-yl)methyl]cyclopentyl}-1,3,4-thiadiazol-2-yl)-2-phenylacetamide] yielded an IC50 of 1.82 µM.
